Assay results from patent US20260151375A1, “CDK2 INHIBITORS AND METHODS OF USING THE SAME” (Cedilla Therapeutics, Inc., priority 2022, published 2026).
Read-outs that look alike come from different tables or passages of the source.

Key:
Kuramochi cells = assay: IncuCyte Kuramochi Assay (cell proliferation); format: cell-based; conditions: Kuramochi cells labeled with mApple-H2B, cell count, read-out: IncuCyte - Kuramochi RB-WT: IC50
Outline: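 GI50 came from dose-response fits of cell-count fold change between 0 and 72 h, normalized to DMSO controls. Counts were fluorescent nuclei from live-cell images over a 10-point, ½ log series starting at 20 μM.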

CDK2/Cyclin E1 [1] = target: T1, CDK2/Cyclin E1 (Homo sapiens, UniProt P24941); assay: Caliper Assay (LabChip EZ Reader mobility shift assay), inhibition of CDK2/Cyclin E1 activity; format: biochemical; conditions: 2.5 nM CDK2/Cyclin E1(14-475), 100 μM ATP, 30 min preincubation; read-out: Caliper Assay (CDK2/CCNE1): IC50
T1 construct: purchased 14-475
Outline: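 Compounds were preincubated 30 min with CDK2/Cyclin E1(14-475), then run for 100 min with 2.5 nM enzyme, 100 μM ATP and 1.5 μM 5-FAM-QSPKKG peptide in HEPES pH 7.5 (final). Reactions were EDTA-stopped and substrate-to-product conversion read by mobility shift. IC50 came from a four-parameter fit.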

CDK2/Cyclin E1 [2] = target: T1, CDK2/Cyclin E1; assay: ADPGLO (CDK2/E1-37 C), ADP-Glo Luminescent Kinase Assay; format: biochemical; conditions: 0.18 nM CDK2/Cyclin E1, 100 μM ATP, Histone H1, 37° C.
Procedure: Inhibition of CDK2/Cyclin E1 activity by the presence of small molecules was evaluated using ADP-Glo Luminescent Kinase Assay (Promega). Activated CDK2/Cyclin E1 was incubated with its substrate Histone H1 (SignalChem H10-54N) in the kinase reaction buffer (100 μM ATP, 50 mM HEPES pH 7.5, 10 mM MgCl2, 1 mM EDTA, 2 mM DTT, 0.01% Brij35, 0.5 mg/mL BSA). Luminescence was recorded with an Envision plate reader (PerkinElmer).
Dose titrations of inhibitors in 100% DMSO were combined with 0.36 nM CDK2/Cyclin E1 in reaction buffer. The mixtures were incubated for 60 minutes at 37° C. before the addition of ATP and Histone H1 substrate to initiate the kinase reaction. The final conditions were 0.18 nM CDK2/Cyclin E1, 100 μM ATP, and 1.5 μM Histone H1. The reactions were incubated at 37° C. for 90 minutes before being stopped with the addition of ADP-Glo reagent. This mixture was incubated at room temperature for 60 minutes before Kinase Detection Solution is added to generate luminescence. The stopped reactions were analyzed on an Envision plate reader. The conversion ratios were normalized to yield % activity, plotted against compound concentration, and fit to a four-parameter equation to determine the IC50 for each compound.

Structure (SMILES)	IC50 (Kuramochi cells; 72 hours) [µM]	IC50 (CDK2/Cyclin E1 [1]) [µM]	IC50 (CDK2/Cyclin E1 [2]) [µM]	IC50 (Kuramochi cells; 72 h) [µM]
CC(c1nc(C2CN(C(=O)c3cncs3)CC23CN(C(=O)[C@H]2CC2(C)C)C3)no1)n1ccc(C2CCCC2)n1 (single isomer, unassigned) [I-36 2nd]	> 10	1 to 10	> 10	
CC(c1nc(C2CN(C(=O)c3cncs3)CC23CN(C(=O)[C@H]2CC2(C)C)C3)no1)n1ccc(C2CCCC2)n1 (single isomer, unassigned) [I-36 3rd]	> 10	0.01 to 0.1	≤ 0.5	
CC1(C)C[C@@H]1C(=O)N1CC2(CN(C(=O)c3cnccn3)CC2c2nnc(C(F)(F)c3ccc(Cl)c(Cl)c3)o2)C1 (single isomer, unassigned) [I-45 2nd]	> 10	0.1 to 1	> 10	
CC1(C)C[C@@H]1C(=O)N1CC2(CN(C(=O)c3cnn(Cc4ccccc4)c3)C[C@H]2c2nnc(Cc3ccc(Cl)c(Cl)c3)o2)C1 [I-15, (1-benzyl-1H-pyrazol-4-yl)((S)-8-(5-(3,4-dichlorobenzyl)-1,3,4-oxadiazol-2-yl)-2-((S)-2,2-dimethylcyclopropane-1-carbonyl)-2,6-diazaspiro[3.4]octan-6-yl)methanone]		0.01 to 0.1	0.5 to 5	5 to 10
CC1(C)C[C@@H]1C(=O)N1CC2(CN(C(=O)c3cncs3)CC2c2nnc(C(F)(F)c3ccc(Cl)c(Cl)c3)o2)C1 (stereo partly drawn) [I-32]		0.1 to 1	0.5 to 5	> 10
COc1ccc(COc2cncc(C(=O)N3CC(c4nnc(C(F)(F)c5ccc(Cl)c(Cl)c5)o4)C4(C3)CN(C(=O)[C@H]3CC3(F)F)C4)n2)cc1 (stereo partly drawn) [I-125]		> 100	> 100	> 10
CC(c1nc(C2CN(C(=O)c3cnn(Cc4ccc(C(=O)O)nc4)c3)CC23CN(C(=O)[C@H]2CC2(C)C)C3)no1)n1ccc(C2CCCC2)n1 (stereo partly drawn) [I-126]		0.1 to 1	> 10	> 10
CC(c1nc(C2CN(C(=O)c3cnn(Cc4ccc(C(=O)O)cc4)c3)CC23CN(C(=O)[C@H]2CC2(C)C)C3)no1)n1ccc(C2CCCC2)n1 (stereo partly drawn) [I-127]		0.1 to 1	5 to 10	> 10
CC(c1nc(C2CN(C(=O)c3nccnc3O)CC23CN(C(=O)[C@H]2CC2(F)F)C3)no1)n1ccc(C2CCCC2)n1 (stereo partly drawn) [I-129]		> 100	> 10	> 10
CC(c1nc(C2CN(C(=O)c3cnn(Cc4cc(F)c(C(=O)O)c(F)c4)c3)CC23CN(C(=O)[C@H]2CC2(C)C)C3)no1)n1ccc(C2CCCC2)n1 (stereo partly drawn) [I-130, 4-((4-(8-(5-(1-(3-cyclopentyl-1H-pyrazol-1-yl)ethyl)-1,2,4-oxadiazol-3-yl)-2-((S)-2,2-dimethylcyclopropane-1-carbonyl)-2,6-diazaspiro[3.4]octane-6-carbonyl)-1H-pyrazol-1-yl)methyl)-2,6-difluorobenzoic acid]		0.01 to 0.1	0.5 to 5	> 10
CC(c1nc(C2CN(C(=O)c3cnn(Cc4cccc(C(=O)O)c4)c3)CC23CN(C(=O)[C@H]2CC2(C)C)C3)no1)n1ccc(C2CCCC2)n1 (stereo partly drawn) [I-131]		≤ 0.01	0.5 to 5	> 10
O=C(c1cnc(O)cn1)N1CC(c2nnc(C(F)(F)c3ccc(C4CCOCC4)cc3)o2)C2(C1)CN(C(=O)[C@H]1CC1(F)F)C2 (stereo partly drawn) [I-132, (8-(5-(difluoro(4-(tetrahydro-2H-pyran-4-yl)phenyl)methyl)-1,3,4-oxadiazol-2-yl)-2-((R)-2,2-difluorocyclopropane-1-carbonyl)-2,6-diazaspiro[3.4]octan-6-yl)(5-hydroxypyrazin-2-yl)methanone]		1 to 10	> 10	> 10
CC(c1nc(C2CN(C(=O)c3cnn(Cc4ccc(C#N)cc4)c3)CC23CN(C(=O)[C@H]2CC2(C)C)C3)no1)n1ccc(C2CCCC2)n1 (stereo partly drawn) [I-133, 4-((4-(8-(5-(1-(3-cyclopentyl-1H-pyrazol-1-yl)ethyl)-1,2,4-oxadiazol-3-yl)-2-((S)-2,2-dimethylcyclopropane-1-carbonyl)-2,6-diazaspiro[3.4]octane-6-carbonyl)-1H-pyrazol-1-yl)methyl)benzonitrile]		≤ 0.01	≤ 0.5	0.5 to 5
CC(c1nc(C2CN(C(=O)c3cnc(O)cn3)CC23CN(C(=O)[C@H]2CC2(F)F)C3)no1)n1ccc(C2CCCC2)n1 (stereo partly drawn) [I-134, (8-(5-(1-(3-cyclopentyl-1H-pyrazol-1-yl)ethyl)-1,2,4-oxadiazol-3-yl)-2-((R)-2,2-difluorocyclopropane-1-carbonyl)-2,6-diazaspiro[3.4]octan-6-yl)(5-hydroxypyrazin-2-yl)methanone]		0.1 to 1	0.5 to 5	> 10
CC(c1nc(C2CN(C(=O)c3cnn(Cc4ccccc4C(=O)O)c3)CC23CN(C(=O)C2(C(F)(F)F)CC2)C3)no1)n1ccc(C2(C(F)(F)F)CC2)n1 (stereo not drawn) [I-220, 2-((4-(2-(1-(trifluoromethyl)cyclopropane-1-carbonyl)-8-(5-(1-(3-(1-(trifluoromethyl)cyclopropyl)-1H-pyrazol-1-yl)ethyl)-1,2,4-oxadiazol-3-yl)-2,6-diazaspiro[3.4]octane-6-carbonyl)-1H-pyrazol-1-yl)methyl)benzoic acid]			0.5 to 5	> 10
CC1(C)C[C@@H]1C(=O)N1CC2(CN(C(=O)c3cncs3)CC2c2nc3ccc(Oc4ccccc4-c4cncs4)cc3o2)C1 (stereo partly drawn) [I-221, (2-((S)-2,2-dimethylcyclopropane-1-carbonyl)-8-(6-(2-(thiazol-5-yl)phenoxy)benzo[d]oxazol-2-yl)-2,6-diazaspiro[3.4]octan-6-yl)(thiazol-5-yl)methanone]			0.5 to 5	5 to 10
COC(=O)c1ccccc1Cn1cc(C(=O)N2CC(c3noc(C(C)n4ccc(C5(C(F)(F)F)CC5)n4)n3)C3(C2)CN(C(=O)C2(C(F)(F)F)CC2)C3)cn1 (stereo not drawn) [I-222]			> 10	> 10
CC(c1nc(C2CN(C(=O)c3cnn(Cc4ccc(C(F)(F)F)cc4)c3)CC23CN(C(=O)C2(C(F)(F)F)CC2)C3)no1)n1ccc(C2(C(F)(F)F)CC2)n1 (stereo not drawn) [I-223, (1-(4-(trifluoromethyl)benzyl)-1H-pyrazol-4-yl)(2-(1-(trifluoromethyl)cyclopropane-1-carbonyl)-8-(5-(1-(3-(1-(trifluoromethyl)cyclopropyl)-1H-pyrazol-1-yl)ethyl)-1,2,4-oxadiazol-3-yl)-2,6-diazaspiro[3.4]octan-6-yl)methanone]			> 10	5 to 10
Cc1nc(C(=O)N2C[C@H](c3noc(C(C)n4ccc(C5CCOCC5)n4)n3)C3(C2)CN(C(=O)C2(C(F)(F)F)CC2)C3)cnc1O (stereo partly drawn) [I-224, (5-hydroxy-6-methylpyrazin-2-yl)((8R)-8-(5-(1-(3-(tetrahydro-2H-pyran-4-yl)-1H-pyrazol-1-yl)ethyl)-1,2,4-oxadiazol-3-yl)-2-(1-(trifluoromethyl)cyclopropanecarbonyl)-2,6-diazaspiro[3.4]octan-6-yl)methanone]			> 10	> 10
CC(c1nc(C2CN(C(=O)c3cnc(O)c(C(F)(F)F)n3)CC23CN(C(=O)C2(C(F)(F)F)CC2)C3)no1)n1ccc(C2CCOCC2)n1 (stereo not drawn) [I-225, (5-Hydroxy-6-(trifluoromethyl)pyrazin-2-yl)(8-(5-(1-(3-(tetrahydro-2H-pyran-4-yl)-1H-pyrazol-1-yl)ethyl)-1,2,4-oxadiazol-3-yl)-2-(1-(trifluoromethyl)cyclopropane-1-carbonyl)-2,6-diazaspiro[3.4]octan-6-yl)methanone]			5 to 10	> 10
